Measurements reported in patent US20180333389A1, “VITAMIN E COMPOSITIONS AND METHODS OF USE THEREFOR” (BIOELECTRON TECHNOLOGY CORPORATION, priority 2017, published 2018).
Like-named read-outs stand apart in the source and are kept apart here.

Legend:
[1] = system: Q7 cells (ST HDH Q7/7; immortalized mouse striatal cells); experiment: Q7 striatal cell survival assay upon cystine deprivation; type: cell-based; settings: for EC50: Q7 cell survival after 18 h in cystine-free medium, Cell Titer Glo, read-out: EC50 (nM) geometric mean (n ≥ 3 independent experiments); for potency in rescuing Q7 cells from oxidative stress relative to the RRR isomer: compared with RRR-alpha-tocopherol
Method: In neuronal cells excess extracellular glutamate inhibits the cystine/glutamate antiporter leading to intracellular cysteine depletion, GSH depletion, ROS production and cell death, a phenomenon termed oxidative glutamate toxicity or oxytosis. Q7 cells (ST HDH Q7/7; immortalized mouse striatal cells) challenged with cystine-free media recapitulate this phenotype. An initial screen was performed to identify compounds effective in rescuing Q7 cells from death resulting from cystine deprivation. This method is further described in Yonezawa et al., J. Neurochem 67, 566-573 (1996), and Li et al., J Neurosci., 23, 5816-5826 (2003).
DMEM (Catalog no. 11995-040), DMEM without Cystine (Catalog no. 21013-024), PBS (Phosphate buffered saline), Penicillin-streptomycin mix, L-Glutamine and Pyruvate were purchased from Gibco. Fetal Bovine Serum was obtained from Mediatech, Inc. Mouse striatum derived ST HDH Q7/7 (Q7) cells were obtained from Dr. M. MacDonald (Massachusetts General Hospital). Methionine and Vitamin K2 were purchased from Sigma Aldrich. Cell Titer Glo 2.0 was purchased from Promega. Geneticin (G418) Sulfate was purchased from Santa Cruz Biotechnology. Cell culture medium (Growth medium) was made by combining 50 mL Fetal Bovine Serum, 100 U/mL penicillin, 100 microgram/mL streptomycin and 400 microgram/mL Geneticin (G418) Sulfate; DMEM was added to make the volume up to 500 mL. Assay medium (without Cystine) was made by combining 50 mL Fetal Bovine Serum, 100 U/mL penicillin, 100 microgram/mL streptomycin, 4 mM L-Glutamine, 1 mM Pyruvate and 30 mg/L Methionine; DMEM without Cystine was added to make the volume up to 500 mL. During the course of the experiments, these solutions were stored at 4° C. The cells were grown in 10-cm diameter tissue culture-treated dishes. Every fourth day, the cells were subcultured by trypsinization and re-seeding at a cell density of 500,000 cells per dish.
Test samples were supplied in 1.5 mL glass vials. The compounds were diluted with an appropriate volume of DMSO to result in a 1 mM stock solution. Once dissolved, they were stored at −20 ° C.
Q7 cells were cultured routinely as described herein. For 384-well cell survival assays, cells were seeded in clear bottom, black wall 384-well tissue culture-treated polystyrene plates by resuspending a cell suspension at a density of 50,000 cells/mL in growth medium, then dispensing 60 microliters of cell suspension per well using either an electronic multichannel pipette or a Multidrop™ Combi Reagent Dispenser (ThermoFisher Scientific), corresponding to 3,000 cells/well. The cell-containing plates were incubated 5 hours at 33° C. in an atmosphere with 95% humidity and 5% CO2 to allow attachment of the cells to the culture plate. 5 hours after cell seeding into the 384-well assay plate, the cell culture medium was replaced by washing 2 times with 70 microliters/well PBS (without Ca^++ and Mg^++) using a BioTek ELx405 plate washer. After the final aspiration, 60 microliters/well of assay medium (without cystine) was added using the Multidrop™ Combi Reagent Dispenser. […]
After medium change to cystine-free medium and compound addition, cell plates were incubated at 33° C. in an atmosphere of 5% CO2 and 95% humidity. […] After 15 minutes of incubation at room temperature, the luminescence (100 ms integration time) per well was determined using the BioTek Synergy plate reader. […]

[2] = target: SQR (sulfide:quinone oxidoreductase) (Homo sapiens, UniProt Q9Y6N5); experiment: SQR activity of alpha-tocopherol quinones (rate of quinone reduction, absorbance at 266 nm); type: biochemical; settings: for rate of quinone reduction by SQR: 100 μM quinone, 25 nM SQR, 25° C., pH 7.5
Chain of SQR (sulfide:quinone oxidoreductase) (Q9Y6N5 whole entry): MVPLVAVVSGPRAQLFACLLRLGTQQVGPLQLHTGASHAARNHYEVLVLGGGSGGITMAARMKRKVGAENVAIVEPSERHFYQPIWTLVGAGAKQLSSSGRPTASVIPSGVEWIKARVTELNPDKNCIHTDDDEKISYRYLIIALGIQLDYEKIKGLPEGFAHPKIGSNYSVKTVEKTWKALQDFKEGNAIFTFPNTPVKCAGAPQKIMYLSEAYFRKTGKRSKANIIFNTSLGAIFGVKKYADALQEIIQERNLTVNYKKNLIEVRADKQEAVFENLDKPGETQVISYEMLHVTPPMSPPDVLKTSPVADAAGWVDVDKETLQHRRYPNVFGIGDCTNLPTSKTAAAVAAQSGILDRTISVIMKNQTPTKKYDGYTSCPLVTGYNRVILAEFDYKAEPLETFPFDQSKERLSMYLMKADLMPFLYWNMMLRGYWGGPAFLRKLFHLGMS
Method: SQR activity in the presence of varying concentrations of the isomers of quinone derivatives of Vitamin E was evaluated by monitoring the rate of quinone reduction using the absorbance of the quinone at 266 nm. Assays were conducted at 25° C. and pH 7.5 in a volume of 100 μL in the following buffer system: 100 mM Tris, 0.5 mM EDTA, 1.0% (w/v) Triton X-100 reduced. Sulfide (as Na2S nonahydrate) as reducing substrate and sulfite (as Na2SO3) as sulfur acceptor substrate were held constant at saturating concentrations of 200 μM and 2 mM, respectively. Quinone substrates were added to final concentrations between 0-200 μM from DMSO stock solutions resulting in 2% final concentration of DMSO (enzymatic rates were independent of DMSO concentration in this range). SQR was added at 25 nM.

HepG2 cells = experiment: Conversion of alpha-tocopherol to the corresponding quinone in HepG2 cells; type: in vitro ADME; settings: dosed at 1 μM, 3 μM and 10 μM, all three concentrations
Method: (§1) DMEM (Catalog no. 11995-040), Penicillin-streptomycin mix, Geneticin (G418) Sulfate were purchased from Thermo Fisher Scientific. Fetal Bovine Serum was obtained from Sigma Aldrich. Mouse striatum-derived ST HDH Q7/7 (Q7) cells were obtained from Dr. M. MacDonald (Massachusetts General Hospital). HepG2 cells were obtained from ATCC. Normal human fibroblast cells (NHF) were obtained from Coriell. Cell culture medium for Q7 cell was prepared by combining 50 mL Fetal Bovine Serum, 100 U/mL penicillin, 100 microgram/mL streptomycin, and 400 microgram/mL Geneticin (G418) Sulfate; DMEM was added to bring the final volume to 500 mL. For HepG2 cells and NHF, cell culture medium was made by combining 50 mL Fetal Bovine Serum, 100 U/mL penicillin, and 100 microgram/mL streptomycin; DMEM was added to bring the final volume to 500 mL. During the course of the experiments, these solutions were stored at 4° C. […]
(§2) Quantification of compounds was determined by mass spectrometry.
The rate of conversion of R,R,R-alpha-tocopherol (black bars) and a 1:1:1:1:1:1:1:1 equimolar mixture of all 8 stereoisomers of alpha-tocopherol (grey bars) to their corresponding quinones was measured in HepG2 cells and is shown in FIG. 2. The percent of total cellular compound in the quinone form was measured at three different dosed concentrations: 1 μM, 3 μM, and 10 μM. […]

[3] = system: Normal human fibroblast cells (NHF); experiment: Conversion of alpha-tocopherol to the corresponding quinone in NHF cells; type: in vitro ADME
Method: DMEM (Catalog no. 11995-040), Penicillin-streptomycin mix, Geneticin (G418) Sulfate were purchased from Thermo Fisher Scientific. Fetal Bovine Serum was obtained from Sigma Aldrich. Mouse striatum-derived ST HDH Q7/7 (Q7) cells were obtained from Dr. M. MacDonald (Massachusetts General Hospital). HepG2 cells were obtained from ATCC. Normal human fibroblast cells (NHF) were obtained from Coriell. Cell culture medium for Q7 cell was prepared by combining 50 mL Fetal Bovine Serum, 100 U/mL penicillin, 100 microgram/mL streptomycin, and 400 microgram/mL Geneticin (G418) Sulfate; DMEM was added to bring the final volume to 500 mL. For HepG2 cells and NHF, cell culture medium was made by combining 50 mL Fetal Bovine Serum, 100 U/mL penicillin, and 100 microgram/mL streptomycin; DMEM was added to bring the final volume to 500 mL. During the course of the experiments, these solutions were stored at 4° C. The cells were grown in 150-cm^2 tissue culture-treated flasks until they reached 90% confluency.
Test samples were supplied in 1.5 mL glass vials. The compounds were diluted with an appropriate volume of DMSO to result in a 10 mM stock solution. Once dissolved, they were stored at −20 ° C.
Test samples were applied according to the following protocol:
Q7, HepG2, and NHF Cells were seeded separately in clear bottom, 96-well tissue culture-treated polystyrene plates by resuspending each cell suspension at a density of 200,000 cells/mL in cell culture medium, then dispensing 50 microliters of cell suspension per well using an electronic multichannel pipette, corresponding to 10,000 cells/well. […]
as §2
The rate of conversion of R,R,R-alpha-tocopherol (black bars) and a 1:1:1:1:1:1:1:1 equimolar mixture of all 8 stereoisomers of alpha-tocopherol (grey bars) to their corresponding quinones was measured in NHF cells and is shown in FIG. 3. The percent of total cellular compound in the quinone form was measured at two different dosed concentrations: 3 μM and 10 μM. […]

[4] = system: Mouse striatum-derived ST HDH Q7/7 (Q7) cells; experiment: Conversion of alpha-tocopherol to the corresponding quinone in Q7 cells; type: in vitro ADME; settings: dosed at 1 μM, 3 μM and 10 μM, all three concentrations
Method: as §1, §2
The rate of conversion of R,R,R-alpha-tocopherol (black bars) and a 1:1:1:1:1:1:1:1 equimolar mixture of all 8 stereoisomers of alpha-tocopherol (grey bars) to their corresponding quinones was measured in Q7 cells and is shown in FIG. 4. The percent of total cellular compound in the quinone form was measured at three different dosed concentrations: 1 μM, 3 μM, and 10 μM. […]

Cc1c(C)c2c(c(C)c1O)CCC(C)(CCCC(C)CCCC(C)CCCC(C)C)O2 (single isomer, unassigned) [Equal mixture of all 8 stereoisomers of alpha-tocopherol, all-rac alpha-tocopherol]
EC50 [1]: 313 nM
potency in rescuing Q7 cells from oxidative stress relative to the RRR isomer [1]: approximately half as potent as the RRR isomer

CC1=C(C)C(=O)C(CC[C@](C)(O)CCC[C@H](C)CCC[C@H](C)CCCC(C)C)=C(C)C1=O [R,R,R-alpha-tocopherol quinone, (R,R,R)-alpha-tocopherol quinone]
reduction rate relative to the corresponding S,R,R stereoisomer ([2]; 100 μM each): more than twice
rate of quinone reduction by SQR [2]: around 125 nM/s
rate of SQR reduction as a function of concentration ([2]; in the absence of the S,R,R isomer): increases with increasing R,R,R-alpha-tocopherol quinone concentration
rate of SQR reduction, upper limit with increasing concentration of the R,R,R isomer ([2]; in the presence of S,R,R-alpha-tocopherol quinone): ≤ 100 nM/s

Cc1c(C)c2c(c(C)c1O)CC[C@@](C)(CCC[C@H](C)CCC[C@H](C)CCCC(C)C)O2 [RRR-alpha-tocopherol, (R,R,R)-alpha-tocopherol]
percent of compound converted to the quinone form, compared with mixture of all 8 stereoisomers (HepG2 cells): higher
percent of compound converted, times higher than the mixture of all 8 stereoisomers ([3]; 3 μM): approximately 3 times
percent of compound converted, times higher than the mixture of all 8 stereoisomers ([3]; 10 μM): approximately 2 times
percent of compound converted to the quinone form, compared with mixture of all 8 stereoisomers ([3]; dosed at 3 μM and 10 μM, both concentrations): higher
EC50 ([1]; Mus musculus): 175 nM
percent of compound converted to the quinone form, compared with mixture of all 8 stereoisomers [4]: higher

CC1=C(C)C(=O)C(CC[C@](C)(O)CCC[C@H](C)CCC[C@H](C)CCCC(C)C)=C(C)C1=O [S,R,R-alpha-tocopherol quinone, reference compound]
rate of quinone reduction by SQR [2]: about 50 nM/s
effect on the activity of the R,R,R isomer (SQR activity) ([2]; 1:1 mixture versus pure R,R,R isomer): inhibitory effect

Cc1c(C)c2c(c(C)c1O)CC[C@](C)(CCC[C@H](C)CCC[C@H](C)CCCC(C)C)O2 [SRR-alpha-tocopherol]
EC50 ([1]; Mus musculus): 372 nM
potency in rescuing Q7 cells from oxidative stress relative to the RRR isomer [1]: approximately half as potent as the RRR isomer
